target: Cyclin-dependent kinase 2/G1/S-specific cyclin-E1 (Homo sapiens, UniProt P24941+P24864); assay: Biological Activity Assay
Description: Kinase enzymatic reactions were performed in 384-well microplates using a 12-channel Caliper LabChip instrument as a detection device. […] As substrate and product are separated, two peaks of fluorescence are observed. Change in the relative fluorescence intensity of the substrate and product peaks is the parameter measured, reflecting enzyme activity. In the presence of an inhibitor, the ratio between product and substrate is altered. […] Potential inhibitor compounds (as HCl salts) were tested using 12-point dose response curves in single point at the Km for ATP.

IC50, > 100 µM:
CN1CC2(CCCC2)N2C(=CC3C=NC(Nc4ccc(N5CCNCC5)cn4)=NC32)C1=O (centres undefined) [US10696682, Compound 31]
CN1CCN2C(=CC3C=NC(Nc4ccc(N5CCNCC5)cn4)=NC32)C1=O (centres undefined) [US10696682, Compound 5]
CC(C)C1CNC(=O)C2=CC3C=NC(Nc4ccc(N5CCN(C)CC5)cn4)=NC3N21 (centres undefined) [US10696682, Compound 7]
CCC(C)[C@H]1CN(C)C(=O)C2=CC3C=NC(Nc4ccc(N5CCN(C)CC5)cn4)=NC3N21 (some centres undefined) [US10696682, Compound 18]
CN1CCN(c2ccc(NC3=NC4C(C=N3)C=C3C(=O)N[C@H]5CCC[C@@H]5N34)nc2)CC1 (some centres undefined) [US10696682, Compound 48]
CC(C)CC1CN(C)C(=O)C2=CC3C=NC(Nc4ccc(N5CCNCC5)cn4)=NC3N21 (centres undefined) [US10696682, Compound 47]
CCC(C)[C@H]1CN(C)C(=O)C2=CC3C=NC(Nc4ccc(N5CCNCC5)cn4)=NC3N21 (some centres undefined) [US10696682, Compound 19]
CC(C)[C@H]1CN(C)C(=O)C2=CC3C=NC(Nc4ccc(N5CCNCC5)cn4)=NC3N21 (some centres undefined) [US10696682, Compound 11]
CC(C)C[C@H]1CN(C)C(=O)C2=CC3C=NC(Nc4ccc(N5CCNCC5)cn4)=NC3N21 (some centres undefined) [US10696682, Compound 15]
